Test results from patent US20110086096A1, “MODIFIED RELEASE 1- [ (3-HYDROXY-ADAMANT-1-YLAMINO)-ACETYL] -PYRROLIDINE-2 (S) -CARBONITRILE FORMULATION” (priority 2005, published 2011).

Key:
[1] = Water solubility of drug substance; type: physicochemical; settings: heading: water solubility
Source text: A once a day MR dosage form is likely to require a significant level of polymer load for retarding drug diffusion. During the development, the applicant has selected monolithic formulation with low risk for dose dumping, eliminating coating technologies in favor of a matrix formulation. After intensive studies on compatibility, ability to retard diffusion pharmacokinetic and pharmacodynamic studies, and regulatory acceptance requirements the applicant narrowed the polymer choice to hydrophilic polymers, especially hydroxpropyl methyl cellulose (HPMC).

[2] = Drug substance and tablet retest date; type: physicochemical; settings: drug substance, storage at 25° C.
Method: The vildagliptin drug substance (DS) is sensitive to moisture. Very tight packaging is necessary. Current retest date is 30 months with storage at 25° C.
For the CSF 100 mg, 150 mg and 200 mg strengths, the stability data are available up to 12 months at 25° C./60% RH and 30° 60% RH. […] The composition of vildagliptin 150 mg modified release tablets is bracketed by 100 mg and 200 mg strengths. Therefore, the stability of 150 mg tablets is expected to be same as 100 mg and 200 mg strengths. Thus a re-test period similar to that of 100 and 200 mg strengths is applied for 150 mg tablets.

solubility [1]: > 125 mg/mL | retest date [2]: 30 months
SMILES: N#C[C@@H]1CCCN1C(=O)CNC12CC3CC(CC(O)(C3)C1)C2 [vildagliptin, 1-[(3-Hydroxy-adamant-1-ylamino)-acetyl]-pyrrolidine-2(S)-carbonitrile]
